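Interpolation was linear, between the two tested concentrations surrounding the appropriate level; five concentrations were tested over 48 hours in 96-well plates. Abbreviation: GI50, concentration required for 50% inhibition of growth. TGI: total growth inhibition.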
What was measured:
Assay in all cases: NCI-60 cell line screen, 48 h
[1] = tested on: NCI-H226 lung
[2] = tested on: K-562 leukemia
[3] = tested on: LOX IMVI melanoma
[4] = tested on: HOP-62 NSCLC
[5] = tested on: EKVX NSCLC
[6] = tested on: BT-549 breast
[7] = tested on: TK-10 renal
[8] = tested on: U251 CNS
[9] = tested on: HCC-2998 colon
[10] = tested on: DU-145 prostate
[11] = tested on: NCI-H23 lung
[12] = tested on: MDA-N
[13] = tested on: T-47D breast
[14] = tested on: SF-539 CNS
[15] = tested on: MCF7 breast
[16] = tested on: SF-295 CNS
[17] = tested on: HS 578T breast
[18] = tested on: MOLT-4 leukemia
[19] = tested on: HL-60(TB) leukemia
[20] = tested on: IGROV1 ovarian
[21] = tested on: HT29 colon
[22] = tested on: A549 NSCLC
[23] = tested on: COLO 205 colon
[24] = tested on: NCI-H522 lung
[25] = tested on: RXF 393 renal
[26] = tested on: HOP-92 NSCLC
[27] = tested on: NCI/ADR-RES ovarian
[28] = tested on: UACC-62 melanoma
[29] = tested on: HCT-116 colon
[30] = tested on: SK-OV-3 ovarian
[31] = tested on: SR leukemia
[32] = tested on: SK-MEL-28 melanoma
[33] = tested on: MDA-MB-435
[34] = tested on: UO-31 renal
[35] = tested on: MDA-MB-231 breast
[36] = tested on: CCRF-CEM leukemia
[37] = tested on: RPMI-8226 leukemia
[38] = tested on: SNB-75 CNS
[39] = tested on: 786-0 renal
[40] = tested on: OVCAR-4 ovarian
[41] = tested on: M14 melanoma
[42] = tested on: OVCAR-8 ovarian
[43] = tested on: PC-3 prostate
[44] = tested on: NCI-H460 lung
[45] = tested on: SF-268 CNS
[46] = tested on: CAKI-1 renal
[47] = tested on: OVCAR-3 ovarian
[48] = tested on: HCT-15 colon
[49] = tested on: SW-620 colon
[50] = tested on: MALME-3M melanoma
[51] = tested on: SK-MEL-5 melanoma
[52] = tested on: SK-MEL-2 melanoma
[53] = tested on: KM12 colon
[54] = tested on: OVCAR-5 ovarian
[55] = tested on: SN12C renal
[56] = tested on: ACHN renal
[57] = tested on: SNB-19 CNS
[58] = tested on: UACC-257 melanoma
[59] = tested on: A498 renal

In the case of `COc1cc2c3c(n(C)c(=O)c2cc1OC)-c1cc2c(cc1/C3=C\CCCBr)OCO2`, the GI50 [1] is reported as 77.5 µM, the TGI [1] is reported as over 100 µM and the GI50 [2] is reported as 58.3 µM. The TGI [2] was over 100 µM, the GI50 [3] was 42 µM and the TGI [3] was over 100 µM. For the same compound, the TGI [4] was 17.1 µM, the GI50 [5] was 15.6 µM and the TGI [5] was over 62.5 µM. It also gave a GI50 [6] of over 20.5 µM, a TGI [6] of over 51.9 µM and a GI50 [7] of 15.2 µM. The TGI [7] was over 53.4 µM, the GI50 [8] was 13.2 µM and the TGI [8] was over 60.3 µM. The TGI [9] was over 51.3 µM, the GI50 [10] was over 59.6 µM and the TGI [10] was over 100 µM. It also gave a GI50 [11] of 19.6 µM, a TGI [11] of 49.6 µM and a GI50 [12] of over 100 µM. For the same compound, the TGI [12] was over 100 µM, the GI50 [13] was over 91.3 µM and the TGI [13] was over 100 µM. For the same compound, the GI50 [14] was 10.3 µM, the TGI [14] was over 41.6 µM and the GI50 [15] was 16.2 µM. The TGI [15] was over 64.8 µM, the GI50 [16] was 9.16 µM and the TGI [16] was 30.8 µM. It also gave a GI50 [17] of 14.4 µM, a TGI [17] of over 57.4 µM and a GI50 [18] of 21.4 µM. The TGI [18] was over 66.2 µM, the GI50 [19] was over 80.3 µM and the TGI [19] was over 100 µM. For the same compound, the GI50 [20] was 28.5 µM, the TGI [20] was over 100 µM and the GI50 [21] was over 100 µM. The TGI [21] was over 100 µM, the GI50 [22] was over 100 µM and the TGI [22] was over 100 µM. For the same compound, the GI50 [23] was 18.8 µM, the TGI [23] was 55.8 µM and the TGI [24] was over 30.2 µM. It also gave a GI50 [25] of 6.35 µM, a TGI [25] of 16.8 µM and a GI50 [26] of 92.4 µM. For the same compound, the TGI [26] was over 100 µM, the TGI [27] was over 100 µM and the GI50 [28] was 7.55 µM. The TGI [28] was 28.9 µM, the GI50 [29] was 27.2 µM and the TGI [29] was over 60.8 µM. The GI50 [30] was 18.1 µM, the TGI [30] was 44.8 µM and the GI50 [31] was 13.3 µM. It also gave a TGI [31] of over 100 µM, a GI50 [32] of over 100 µM and a TGI [32] of over 100 µM. It also gave a GI50 [33] of over 100 µM, a TGI [33] of over 100 µM and a GI50 [34] of over 49.7 µM. The TGI [34] was over 100 µM, the GI50 [35] was 9.16 µM and the TGI [35] was over 45.3 µM. For the same compound, the GI50 [36] was 14.3 µM, the TGI [36] was 50.3 µM and the GI50 [37] was 29.1 µM. The TGI [37] was over 100 µM, the GI50 [38] was 398 nM and the TGI [38] was 12.8 µM. It also gave a GI50 [39] of 8.5 µM, a TGI [39] of over 40.2 µM and a GI50 [40] of 39.2 µM. The TGI [40] was over 100 µM, the GI50 [41] was over 96.6 µM and the TGI [41] was over 100 µM. The TGI [42] was over 48.7 µM, the GI50 [43] was over 95.2 µM and the TGI [43] was over 100 µM. It also gave a GI50 [44] of 26.9 µM, a TGI [44] of over 100 µM and a GI50 [45] of 16.1 µM. The TGI [45] was over 54.8 µM, the GI50 [46] was 48.1 µM and the TGI [46] was over 100 µM. The GI50 [47] was over 92.2 µM, the TGI [47] was over 100 µM and the GI50 [48] was 34.8 µM. For the same compound, the TGI [48] was over 86.8 µM, the GI50 [49] was over 100 µM and the TGI [49] was over 100 µM. It also gave a GI50 [50] of 7.2 µM, a TGI [50] of over 45.4 µM and a GI50 [51] of over 69.5 µM. The TGI [51] was over 100 µM, the GI50 [52] was 21.3 µM and the TGI [52] was 69.4 µM. For the same compound, the GI50 [53] was over 100 µM, the TGI [53] was over 100 µM and the GI50 [54] was 19.3 µM. The TGI [54] was over 70.6 µM, the GI50 [55] was over 100 µM and the TGI [55] was over 100 µM. For the same compound, the GI50 [56] was 7.37 µM, the TGI [56] was 25.3 µM and the GI50 [57] was 23.4 µM. It also gave a TGI [57] of over 65.8 µM, a GI50 [58] of over 41.5 µM and a TGI [58] of over 100 µM. For the same compound, the GI50 [59] was 26.3 µM and the TGI [59] was 68.9 µM.
